Results reported in ChEMBL document CHEMBL2202954, “The effect of PLC-γ2 inhibitors on the growth of human tumour cells” (2012).

Legend:
Assay type in all cases: functional
U-251 = test: Cytotoxicity against human U251 cells assessed as cellular growth at 10 uM by SRB assay
SK-MEL-5 = test: Cytotoxicity against human SK-MEL-5 cells assessed as cellular growth at 10 uM by SRB assay
SNB-75 = test: Cytotoxicity against human SNB75 cells assessed as cellular growth at 10 uM by SRB assay
LOX IMVI = test: Cytotoxicity against human LOXIMVI cells assessed as cellular growth at 10 uM by SRB assay
NCI-H226 = test: Cytotoxicity against human NCI-H226 cells assessed as cellular growth at 10 uM by SRB assay
SK-MEL-2 = test: Cytotoxicity against human SK-MEL-2 cells assessed as cellular growth at 10 uM by SRB assay
MCF7 = test: Cytotoxicity against human MCF7 cells assessed as cellular growth at 10 uM by SRB assay
OVCAR-8 = test: Cytotoxicity against human OVCAR8 cells assessed as cellular growth at 10 uM by SRB assay
EKVX = test: Cytotoxicity against human EKVX cells assessed as cellular growth at 10 uM by SRB assay
HCT-116 = test: Cytotoxicity against human HCT116 cells assessed as cellular growth at 10 uM by SRB assay
ACHN = test: Cytotoxicity against human ACHN cells assessed as cellular growth at 10 uM by SRB assay
RPMI-8226 = test: Cytotoxicity against human RPMI8226 cells assessed as cellular growth at 10 uM by SRB assay
SF-539 = test: Cytotoxicity against human SF539 cells assessed as cellular growth at 10 uM by SRB assay
T47D = test: Cytotoxicity against human T47D cells assessed as cellular growth at 10 uM by SRB assay
SK-MEL-28 = test: Cytotoxicity against human SK-MEL-28 cells assessed as cellular growth at 10 uM by SRB assay
SK-OV-3 = test: Cytotoxicity against human SKOV3 cells assessed as cellular growth at 10 uM by SRB assay
UACC-257 = test: Cytotoxicity against human UACC257 cells assessed as cellular growth at 10 uM by SRB assay
UO-31 = test: Cytotoxicity against human UO31 cells assessed as cellular growth at 10 uM by SRB assay
OVCAR-3 = test: Cytotoxicity against human OVCAR3 cells assessed as cellular growth at 10 uM by SRB assay
MDA-MB-231 = test: Cytotoxicity against human MDA-MB-231 cells assessed as cellular growth at 10 uM by SRB assay

SMILES	Activity (U-251) [%]	Activity (SK-MEL-5) [%]	Activity (SNB-75) [%]	Activity (LOX IMVI) [%]	Activity (NCI-H226) [%]	Activity (SK-MEL-2) [%]	Activity (MCF7) [%]	Activity (OVCAR-8) [%]	Activity (EKVX) [%]	Activity (HCT-116) [%]	Activity (ACHN) [%]	Activity (RPMI-8226) [%]	Activity (SF-539) [%]	Activity (T47D) [%]	Activity (SK-MEL-28) [%]	Activity (SK-OV-3) [%]	Activity (UACC-257) [%]	Activity (UO-31) [%]	Activity (OVCAR-3) [%]	Activity (MDA-MB-231) [%]
COc1ccc2[nH]c(C(=O)NCc3ccccc3)cc2c1	98.45	97.92	87.91	103.84	96.37	108.1	83.2	102.92	78.14	94.88	94.48	90.52	101.58	85.87	110.55	108.16	103.04	75.52	112.21	91.31
CC1(C)CCc2cc(-c3ccn(S(=O)(=O)c4ccccc4Cl)n3)ccc2O1	67.67	75.14	99.11	83.91	90.58	102.25	73.21	89.74	67.03	68.63	98.39	70.97	87.92	58.8	99.8	91.9	99.38	90.06	93.06	99.59
CC1(C)CC(=O)c2cc3c(N)c(C(=O)NCc4ccccc4)sc3nc2C1	99.82	91.1	98.33	102.22	86.42	114.95	87.02	95.57	108.91	103.66	102.79	101.22	96.57	100.55	102.38	111.17	104.6	110.68	115.21	101.13
O=C(NCCc1ccccc1)c1[nH]c2ccccc2c1Cl	92.92	82.39	79.43	89.47	73.27	129.02	83.19	84.42	57.12	87.15	90.71	71.07	102.52	71.67	106.79	91.3	96.54	57.64	72.81	80.08
O=C(NCCc1ccc(Cl)cc1)c1[nH]c2ccccc2c1Cl	100.14	95.47	89.76	96.1	89.37	130.7	78.35	96.34	91.27	98.39	99.57	96.69	101.07	81.02	109.77	86.84	100.48	73.65	100.99	95.77
O=C(NCc1ccc(Cl)cc1)c1[nH]c2ccccc2c1Cl	105.3	95.97	94.33	95.45	89.64	111.13	128.42	104.08	83.18	103.25	104.7	90.9	118.51	96.29	109.03	98.27	117.15	80.6	97.31	106.69
Cc1ccc(CNC(=O)c2[nH]c3ccccc3c2Cl)cc1	92.16	99.25	123.78	97.73	96.65	99.35	98.84	99.35	91.13	107.58	112.34	101.73	110.44	84.33	113.18	92.6	101.14	110.2	95.55	112.08
CC1(C)CCc2cc(-c3ccn(S(=O)(=O)c4ccc(Cl)cc4)n3)ccc2O1	74.2	47.2	92.32	72.15	74.42	92.25	71.27	86.61	54.5	61.1	89.36	52.06	101.35	54.12	94.67	91.35	64.88	75.63	84.01	76.35
CC1(C)CCc2cc(-c3ccn(S(=O)(=O)c4cccc(C(F)(F)F)c4)n3)ccc2O1	81.96	69.29	102.76	92.84	90.51	107.75	87.68	93.92	70.44	74.24	109.2	68.84	116.68	66.31	105.56	96.16	81.69	97.36	101.58	95.04
COc1ccc(NC(=O)c2sc3nc4c(cc3c2N)C(=O)CCC4)cc1	106.61	98.62	103.13	100.6	95.31	114.87	104.14	107.58	102.57	97.11	105.22	104.85	102.64	110.7	106.67	115.02	117.22	106.6	103.75	116.49
N#Cc1ccc(NC(=O)c2sc3nc4c(cc3c2N)C(=O)CCC4)cc1	106.08	92.55	113.44	111.96	93.7	83	97.4	104.55	93.58	107.92	107.57	95.69	99.77	95.85	105.89	106.21	105.99	103.56	113.89	109.01
CC1(C)CC(=O)c2cc3c(N)c(C(=O)Nc4ccc(Cl)cc4)sc3nc2C1	103.14	96.03	113.88	108.76	108.39	100.96	102.6	110.67	93.17	108.43	116.88	102.77	114.18	96.17	118.07	106.15	91.35	108.83	111.21	114.95
CC1(C)CC(=O)c2cc3c(N)c(C(=O)Nc4ccccc4Cl)sc3nc2C1	102.37	100.73	118.5	117.15	111.12	111.24	111.34	109.63	108.8	113.5	114.15	108.32	111.8	99.6	116.26	107.93	104.02	117.05	121.58	116.03
Nc1c(C(=O)Nc2ccc(Cl)c(Cl)c2)sc2nc(-c3cccs3)ccc12	83.86	90.4	86.26	43.3	96.17	58.47	87.77	98.27	93.39	75.19	99.6	87.02	79.24	85.21	97.42	105.1	91.24	83.99	100.29	84.38
Cc1ccc(NC(=O)c2sc3nc(-c4cccs4)ccc3c2N)cc1C	101.86	98.52	111.99	101.98	107.93	82.1	109.1	102.12	103.49	106.03	125.53	103.98	118.53	96.25	113.95	112.05	106.65	126.96	98.63	116.18
COc1ccc(S(=O)(=O)n2ccc(-c3ccc4c(c3)CCC(C)(C)O4)n2)cc1	84.18	42.57	83.99	79.45	71.38	84.41	73.48	83.81	51.56	68.33	104.15	49.25	102.86	46.7	98.27	90.41	57.41	78.12	81.18	87.67
